Test results published in ChEMBL document CHEMBL6103674, “Xiapyrroles A-F: N-Alkylpyrrole Alkaloids from the Marine-Derived Actinomycete Streptomyces xiamenensis 1310KO-148” (J Nat Prod, 2025).
Activity calls are given as the source filed them. The rule behind the calls is not given here.

How the values were obtained:
RAW264.7 [1] = test: Cytotoxicity against LPS-induced mouse RAW264.7 cells assessed as reduction in cell viability at 30 uM measured after 24 hrs by XTT assay; format: toxicity, cell-based; conditions: raw264.7, 24 h
RAW264.7 [2] = test: Anti-inflammatory activity in LPS-induced mouse RAW264.7 cells assessed as suppression of NO production at 30 uM pretreated for 1 hr followed by LPS addition and measured after 24 hrs by Griess reagent based assay; format: functional, cell-based; conditions: time 25.0 hrs
RAW264.7 [3] = test: Anti-inflammatory activity in LPS-induced mouse RAW264.7 cells assessed as suppression of NO production pretreated for 1 hr followed by LPS addition and measured after 24 hrs by Griess reagent based assay; format: functional, cell-based
RAW264.7 [4] = test: Anti-inflammatory activity in LPS-induced mouse RAW264.7 cells assessed as suppression of IL-6 level pretreated for 1 hr followed by LPS addition and measured after 24 hrs by ELISA method; format: functional, cell-based
RAW264.7 [5] = test: Anti-inflammatory activity against mouse RAW264.7 cells assessed as inhibition of LPS-induced iNOS mRNA level pretreated for 1 hr followed by induced with LPS measured after 6 hrs by quantitative RT-PCR analysis; format: functional, cell-based; conditions: dose 1-30 µM, time 7.0 hrs
RAW264.7 [6] = test: Anti-inflammatory activity against mouse RAW264.7 cells assessed as inhibition of LPS-induced IL-6 mRNA level pretreated for 1 hr followed by induced with LPS measured after 6 hrs by quantitative RT-PCR analysis; format: functional, cell-based; conditions: dose 1-30 µM, time 7.0 hrs
PC-3 = test: Cytotoxicity against human PC-3 cells at 30 uM; format: functional, cell-based
NCI-H23 = test: Cytotoxicity against human NCI-H23 cells at 30 uM; format: functional, cell-based
HCT-15 = test: Cytotoxicity against human HCT-15 cells at 30 uM; format: functional, cell-based
NUGC-3 = test: Cytotoxicity against human NUGC-3 cells at 30 uM; format: functional, cell-based
ACHN = test: Cytotoxicity against human ACHN cells at 30 uM; format: functional, cell-based
MDA-MB-231 = test: Cytotoxicity against human MDA-MB-231 cells at 30 uM; format: functional, cell-based
HL-60 = test: Cytotoxicity against human HL-60 cells at 30 uM; format: functional, cell-based
Raji = test: Cytotoxicity against human Raji cells at 30 uM; format: functional, cell-based
K562 = test: Cytotoxicity against human K562 cells at 30 uM; format: functional, cell-based
RPMI 8402 = test: Cytotoxicity against human RPMI 8402 cells at 30 uM; format: functional, cell-based
NALM-6 = test: Cytotoxicity against human NALM-6 cells at 30 uM; format: functional, cell-based
U-266 = test: Cytotoxicity against human U-266 cells at 30 uM; format: functional, cell-based
WSUDLCL2 = test: Cytotoxicity against human WSUDLCL2 cells at 30 uM; format: functional, cell-based
RPMI-1788 = test: Cytotoxicity against human RPMI-1788 cells at 30 uM; format: functional, cell-based

**Q.** `Cc1cc(C)n(CCc2ccc(O)cc2)c1C=O` was tested. Which Activity (RAW264.7 [1]) did it give?
**A.** Non-toxic

**Q.** For `CO[C@@]1(C)C=C(C)C(=O)N1CCc1ccc(O)cc1`, which Activity (RAW264.7 [1]) is on record?
**A.** Non-toxic

**Q.** For `CO[C@@]1(C)C=C(C)C(=O)N1CC(=O)c1ccccc1`, which Activity (RAW264.7 [1]) is on record?
**A.** Non-toxic

**Q.** Which Activity (RAW264.7 [1]) does the source give for `CC1=C[C@@](C)(O)N(CCc2ccc(O)cc2)C1=O` here?
**A.** Non-toxic

**Q.** How did the Activity (RAW264.7 [2]) turn out when `C=C1C=C(C)C(=O)N1CCc1ccc(O)cc1` was run?
**A.** Active

**Q.** What about the Activity (RAW264.7 [1]) of the same compound?
**A.** Non-toxic

**Q.** And the IC50 (RAW264.7 [3])?
**A.** 29.5 µM

**Q.** What about the Activity (RAW264.7 [3]; time 25.0 hrs) of the same compound?
**A.** Dose-dependent-effect

**Q.** What about the IC50 (RAW264.7 [4]) of the same compound?
**A.** 10.9 µM

**Q.** And the Activity (RAW264.7 [4]; time 25.0 hrs)?
**A.** Dose-dependent-effect

**Q.** What about the inhibition (RAW264.7 [5]) of the same compound?
**A.** Dose-dependent-effect

**Q.** And the inhibition (RAW264.7 [6])?
**A.** Dose-dependent-effect

**Q.** And the Activity (PC-3)?
**A.** inactive

**Q.** What about the Activity (NCI-H23) of the same compound?
**A.** inactive

**Q.** What about the Activity (HCT-15) of the same compound?
**A.** inactive

**Q.** And the Activity (NUGC-3)?
**A.** inactive

**Q.** And the Activity (ACHN)?
**A.** inactive

**Q.** What about the Activity (MDA-MB-231) of the same compound?
**A.** inactive

**Q.** What about the Activity (HL-60) of the same compound?
**A.** inactive

**Q.** What about the Activity (Raji) of the same compound?
**A.** inactive

**Q.** And the Activity (K562)?
**A.** inactive

**Q.** What about the Activity (RPMI 8402) of the same compound?
**A.** inactive

**Q.** And the Activity (NALM-6)?
**A.** inactive

**Q.** What about the Activity (U-266) of the same compound?
**A.** inactive

**Q.** What about the Activity (WSUDLCL2) of the same compound?
**A.** inactive

**Q.** What about the Activity (RPMI-1788) of the same compound?
**A.** inactive

**Q.** `CC(=O)N(O)CCCn1c(C)cc(C)c1C(=O)[C@@H](O)CO` was tested. Which Activity (RAW264.7 [1]) did it give?
**A.** Non-toxic
